Laboratory results reported in patent publication US20230373985A1 (Origenis Gmbh, priority 2020, published 2023).

Assays:
[1] = target: T1, wt human JAK1, catalytic site (Homo sapiens, UniProt P23458); assay: HTRF KinEASE assay, JAK1; format: biochemical; details: 2.5 μM ATP; read-out: IC50, Activity Toward JAK1
T1 construct: wt human JAK1, catalytic site; purchased ThermoFisher
Description: (§1) Basic protocol for HTRF KinEASE assay (Cisbio/FRA) inhibitor studies involved two steps: • Enzymatic step: Addition of 4 μL of test compound in corresponding DMSO dilutions, 4 μL of kinase/substrate mixture, 2 μL of ATP into 384 well small volume plates. Incubation for at least 30 minutes at room temperature. • Detection step: Addition of 5 μL antibody and 5 μL streptavidin-XL665, read plate after 60 minutes. Data analysis of emission ratios according KinEASE assay protocol.
(§2) Kinase and assay components were adjusted to final concentrations according to kit protocol. For TYK2: 2 nM wt human TYK2, catalytic site (SignalChem/CAN), 1 μM HTRF KinEASE-TK Substrate-biotin, 1 μM ATP in 1× Kinase Buffer. […] For JAK2: 1 nM wt human JAK2, catalytic site (SignalChem/CAN), 1 μM HTRF KinEASE-TK Substrate-biotin, 100 μM ATP in 1× Kinase Buffer.
as §2

[2] = target: T2, wt human TYK2, catalytic site (Homo sapiens, UniProt P29597); assay: HTRF KinEASE assay, TYK2; format: biochemical; details: 1 μM ATP; read-out: IC50, Activity Toward TYK2
T2 construct: wt human TYK2, catalytic site; purchased SignalChem
T2 sequence (P29597 897-1176 limits assumed): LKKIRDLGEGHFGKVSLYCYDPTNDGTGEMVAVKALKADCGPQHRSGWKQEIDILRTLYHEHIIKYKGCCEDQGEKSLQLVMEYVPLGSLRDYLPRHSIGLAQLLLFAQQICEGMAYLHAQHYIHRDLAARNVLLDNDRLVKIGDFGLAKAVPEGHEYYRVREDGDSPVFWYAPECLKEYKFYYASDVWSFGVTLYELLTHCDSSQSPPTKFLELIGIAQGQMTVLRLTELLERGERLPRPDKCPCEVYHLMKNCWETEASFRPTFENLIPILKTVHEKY
Description: as §1
(§3) Kinase and assay components were adjusted to final concentrations according to kit protocol. For TYK2: 2 nM wt human TYK2, catalytic site (SignalChem/CAN), 1 μM HTRF KinEASE-TK Substrate-biotin, 1 μM ATP in 1× Kinase Buffer. For JAK1: 4 nM wt human JAK1, catalytic site (ThermoFisher/USA), 1 μM HTRF KinEASE-TK Substrate-biotin, 2.5 μM ATP in 1× Kinase Buffer. For JAK2: 1 nM wt human JAK2, catalytic site (SignalChem/CAN), 1 μM HTRF KinEASE-TK Substrate-biotin, 100 μM ATP in 1× Kinase Buffer.
as §3

T1 sequence (P23458 875-1153 limits assumed): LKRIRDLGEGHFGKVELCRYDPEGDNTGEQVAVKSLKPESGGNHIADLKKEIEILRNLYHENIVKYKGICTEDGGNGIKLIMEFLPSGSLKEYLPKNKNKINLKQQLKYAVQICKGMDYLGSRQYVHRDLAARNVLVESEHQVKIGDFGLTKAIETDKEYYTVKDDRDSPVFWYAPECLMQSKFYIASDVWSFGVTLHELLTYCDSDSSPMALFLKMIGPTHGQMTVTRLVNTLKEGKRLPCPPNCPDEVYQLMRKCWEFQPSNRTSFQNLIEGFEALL

| SMILES | IC50 [1] [nM] | IC50 [2] [nM] |
| --- | --- | --- |
| NC(=O)c1nn(-c2c(Cl)cccc2Cl)nc1Nc1ccc(CC(=O)N2CC(F)C2)nc1 [compound 152, 2-(2,6-dichlorophenyl)-5-((6-(2-(3-fluoroazetidin-1-yl)-2-oxoethyl)pyridin-3-yl)amino)-2H-1,2,3-triazole-4-carboxamide] | 10 to 100 | 100 to 1000 |
| NC(=O)c1nn(-c2c(Cl)cccc2Cl)cc1Nc1ccc(C(=O)NC2CCCNC2)cc1 (centres unmarked) [compound 39, 1-(2,6-dichlorophenyl)-4-((4-(piperidin-3-ylcarbamoyl)phenyl)amino)-1H-pyrazole-3-carboxamide] | 10 to 100 | 100 to 1000 |
| Cn1nc(C(F)(F)F)nc1-c1ccc(Nc2cn(-c3c(Cl)cccc3Cl)nc2C(N)=O)cc1 [compound 215, 1-(2,6-dichlorophenyl)-4-((4-(1-methyl-3-(trifluoromethyl)-1H-1,2,4-triazol-5-yl)phenyl)amino)-1H-pyrazole-3-carboxamide] | 10 to 100 | < 10 |
| NC(=O)c1nn(-c2c(Cl)cccc2Cl)cc1Nc1ccc(-c2nnccc2C(F)(F)F)cc1 [compound 69, 1-(2,6-dichlorophenyl)-4-((4-(4-(trifluoromethyl)pyridazin-3-yl)phenyl)amino)-1H-pyrazole-3-carboxamide] | 100 to 1000 | 10 to 100 |
| NC(=O)c1nn(-c2c(Cl)cccc2Cl)cc1Nc1ccc(CN2CCS(=O)(=O)CC2)nc1 [compound 455, 1-(2,6-dichlorophenyl)-4-((6-((1,1-dioxidothiomorpholino)methyl)pyridin-3-yl)amino)-1H-pyrazole-3-carboxamide] | 100 to 1000 | 10 to 100 |
| Cc1nnnn1-c1ccc(Nc2nn(-c3c(Cl)cccc3Cl)nc2C(N)=O)nc1 [compound 134, 2-(2,6-dichlorophenyl)-5-((5-(5-methyl-1H-tetrazol-1-yl)pyridin-2-yl)amino)-2H-1,2,3-triazole-4-carboxamide] | 10 to 100 | 10 to 100 |
| CC1(C)CN(C(=O)c2ccc(Nc3cn(-c4c(Cl)cccc4Cl)nc3C(N)=O)cn2)C1 [compound 464, 1-(2,6-dichlorophenyl)-4-((6-(3,3-dimethylazetidine-1-carbonyl)pyridin-3-yl)amino)-1H-pyrazole-3-carboxamide] | 100 to 1000 | 10 to 100 |
| NC(=O)c1nn(-c2c(Cl)cccc2Cl)nc1Nc1cnn(CC(=O)N2CCS(=O)(=O)CC2)c1 [compound 174, 2-(2,6-dichlorophenyl)-5-((1-(2-(1,1-dioxidothiomorpholino)-2-oxoethyl)-1H-pyrazol-4-yl)amino)-2H-1,2,3-triazole-4-carboxamide] | < 10 | 10 to 100 |
| CC(C)(C)OC(=O)N[C@@H]1CCN(C(=O)c2ccc(Nc3cn(-c4c(Cl)cccc4Cl)nc3C(N)=O)cc2)C1 [compound 324, (R)-tert-butyl_(1-(4-((3-carbamoyl-1-(2,6-dichlorophenyl)-1H-pyrazol-4-yl)amino)benzoyl)pyrrolidin-3-yl)carbamate] | 100 to 1000 | 100 to 1000 |
| COC(=O)Cn1cc(Nc2cn(-c3c(Cl)cccc3Cl)nc2C(N)=O)cn1 [compound 462, methyl_2-(4-((3-carbamoyl-1-(2,6-dichlorophenyl)-1H-pyrazol-4-yl)amino)-1H-pyrazol-1-yl)acetate] | 10 to 100 | 100 to 1000 |
| Cc1cccc2ncc(-c3ccc(Nc4cn(-c5c(Cl)cccc5Cl)nc4C(N)=O)cn3)n12 [compound 473, 1-(2,6-dichlorophenyl)-4-((6-(5-methylimidazo[1,2-a]pyridin-3-yl)pyridin-3-yl)amino)-1H-pyrazole-3-carboxamide] | 10 to 100 | 10 to 100 |
| NC(=O)c1nn(-c2c(Cl)cccc2Cl)nc1Nc1ccc(C(=O)N2CCSCC2)cc1 [compound 170, 2-(2,6-dichlorophenyl)-5-((4-(thiomorpholine-4-carbonyl)phenyl)amino)-2H-1,2,3-triazole-4-carboxamide] | < 10 | < 10 |
| COCc1nc(C(F)(F)F)nn1-c1ccc(Nc2cn(-c3c(Cl)cccc3Cl)nc2C(N)=O)cc1 [compound 281, 1-(2,6-dichlorophenyl)-4-((4-(5-(methoxymethyl)-3-(trifluoromethyl)-1H-1,2,4-triazol-1-yl)phenyl)amino)-1H-pyrazole-3-carboxamide] | 100 to 1000 | < 10 |

Next, values leading:

| IC50 [1] [nM] | IC50 [2] [nM] | SMILES |
| --- | --- | --- |
| 10 to 100 | 10 to 100 | NC(=O)c1nn(-c2c(Cl)cccc2Cl)cc1Nc1ccc(C(=O)N2CC[C@@H](F)C2)cn1 [compound 443, (R)-1-(2,6-dichlorophenyl)-4-((5-(3-fluoropyrrolidine-1-carbonyl)pyridin-2-yl)amino)-1H-pyrazole-3-carboxamide] |
| 100 to 1000 | 100 to 1000 | Cc1ncnn1-c1ccc(Nc2cn(-c3c(Cl)cccc3Cl)nc2C(N)=O)nc1 [compound 430, 1-(2,6-dichlorophenyl)-4-((5-(5-methyl-1H-1,2,4-triazol-1-yl)pyridin-2-yl)amino)-1H-pyrazole-3-carboxamide] |
| 10 to 100 | 10 to 100 | Cn1cc(C(F)(F)F)nc1-c1ccc(Nc2cn(-c3c(Cl)cccc3Cl)nc2C(N)=O)nc1 [compound 433, 1-(2,6-dichlorophenyl)-4-((5-(1-methyl-4-(trifluoromethyl)-1H-imidazol-2-yl)pyridin-2-yl)amino)-1H-pyrazole-3-carboxamide] |
| 100 to 1000 | 10 to 100 | NC(=O)c1nn(-c2c(Cl)cccc2Cl)cc1Nc1ccc(C(=O)N2CCN(CC(F)(F)F)CC2)cc1 [compound 93, 1-(2,6-dichlorophenyl)-4-((4-(4-(2,2,2-trifluoroethyl)piperazine-1-carbonyl)phenyl)amino)-1H-pyrazole-3-carboxamide] |
| 100 to 1000 | 10 to 100 | CN1CCN(C(=O)c2ccc(Nc3cn(-c4c(Cl)cccc4Cl)nc3C(N)=O)cn2)CC1 [compound 363, 1-(2,6-dichlorophenyl)-4-((6-(4-methylpiperazine-1-carbonyl)pyridin-3-yl)amino)-1H-pyrazole-3-carboxamide] |
| 100 to 1000 | 100 to 1000 | COCCCNC(=O)c1ccc(Nc2cn(-c3c(Cl)cccc3Cl)nc2C(N)=O)cc1 [compound 420, 1-(2,6-dichlorophenyl)-4-((4-((3-methoxypropyl)carbamoyl)phenyl)amino)-1H-pyrazole-3-carboxamide] |
| 10 to 100 | 100 to 1000 | N#Cc1cccc2nnc(-c3ccc(Nc4cn(-c5c(Cl)cccc5Cl)nc4C(N)=O)cn3)n12 [compound 476, 4-((6-(5-cyano-[1,2,4]triazolo[4,3-a]pyridin-3-yl)pyridin-3-yl)amino)-1-(2,6-dichlorophenyl)-1H-pyrazole-3-carboxamide] |
| 100 to 1000 | 100 to 1000 | NC(=O)c1nn(-c2c(Cl)cccc2Cl)cc1Nc1ccc(-c2nnc3cccc(C(F)(F)F)n23)nc1 [compound 471, 1-(2,6-dichlorophenyl)-4-((6-(5-(trifluoromethyl)-[1,2,4]triazolo[4,3-a]pyridin-3-yl)pyridin-3-yl)amino)-1H-pyrazole-3-carboxamide] |
| 10 to 100 | 10 to 100 | Cc1cnnn1-c1ccc(Nc2nn(-c3c(Cl)cccc3Cl)nc2C(N)=O)nc1 [compound 141, 2-(2,6-dichlorophenyl)-5-((5-(5-methyl-1H-1,2,3-triazol-1-yl)pyridin-2-yl)amino)-2H-1,2,3-triazole-4-carboxamide] |
| 100 to 1000 | 10 to 100 | CC(C)(C)OC(=O)N[C@H]1CCN(C(=O)c2ccc(Nc3cn(-c4c(Cl)cccc4Cl)nc3C(N)=O)cc2)C1 [compound 325, (S)-tert-butyl_(1-(4-((3-carbamoyl-1-(2,6-dichlorophenyl)-1H-pyrazol-4-yl)amino)benzoyl)pyrrolidin-3-yl)carbamate] |
| 100 to 1000 | 10 to 100 | Cn1nnnc1-c1ccc(Nc2cn(-c3c(Cl)cccc3Cl)nc2C(N)=O)cn1 [compound 375, 1-(2,6-dichlorophenyl)-4-((6-(1-methyl-1H-tetrazol-5-yl)pyridin-3-yl)amino)-1H-pyrazole-3-carboxamide] |
| 10 to 100 | < 10 | CCc1cnnn1-c1ccc(Nc2cn(-c3c(Cl)cccc3Cl)nc2C(N)=O)cc1 [compound 411, 1-(2,6-dichlorophenyl)-4-((4-(5-ethyl-1H-1,2,3-triazol-1-yl)phenyl)amino)-1H-pyrazole-3-carboxamide] |
